From patent US12466809B2, “CDK2/5 degraders and uses thereof” (DANA-FARBER CANCER INSTITUTE, INC., priority 2019, dated 2025)

What was measured:
CDK2/Cyclin A = CDK2/Cyclin A (Homo sapiens (Human), UniProt P24941); experiment: Invitrogen Z'-LYTE kinase assay CDK2/Cyclin A (assay ID 315, Km app, 10-point titration); assay type: biochemical; settings: Km app ATP
Text: (§1) CDK2 and CDK5 IC50 data were attained through the use of Invitrogen™ commercial assays. The method for CDK2 (assay ID: 315, kinase|Z'-LYTE™|CDK2/Cyclin A|Km app) used a 10-point titration. The method for CDK5 (assay ID: 318, kinase|Z'-LYTE™|CDK5/p25|Km app) used a 10-point titration.

CDK5/p25 = CDK5/p25 (Homo sapiens (Human), UniProt Q00535); experiment: Invitrogen Z'-LYTE kinase assay CDK5/p25 (assay ID 318, Km app, 10-point titration); assay type: biochemical; settings: CDK5/p25, Km app ATP
Chain of CDK5/p25 (Q00535 whole entry): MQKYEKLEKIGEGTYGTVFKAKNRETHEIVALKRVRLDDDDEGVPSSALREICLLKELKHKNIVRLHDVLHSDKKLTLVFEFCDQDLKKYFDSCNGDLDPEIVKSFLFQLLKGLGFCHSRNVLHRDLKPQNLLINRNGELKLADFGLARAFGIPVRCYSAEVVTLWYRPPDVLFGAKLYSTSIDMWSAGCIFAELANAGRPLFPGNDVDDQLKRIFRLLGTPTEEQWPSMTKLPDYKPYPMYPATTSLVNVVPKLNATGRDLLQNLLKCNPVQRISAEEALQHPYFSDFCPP
Chain of CDK5/p25 (Q15078 99-307 partner): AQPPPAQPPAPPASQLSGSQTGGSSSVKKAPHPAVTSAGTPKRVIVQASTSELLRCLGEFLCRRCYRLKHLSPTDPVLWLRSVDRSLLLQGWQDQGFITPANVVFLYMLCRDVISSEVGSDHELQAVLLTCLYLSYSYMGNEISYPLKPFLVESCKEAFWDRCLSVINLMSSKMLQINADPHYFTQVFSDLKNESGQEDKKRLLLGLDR
Text: as §1

Structure (SMILES) | IC50 (CDK2/Cyclin A) [nM] | IC50 (CDK5/p25) [nM]
NC(=O)c1c(F)cccc1Nc1nc(NC2CCN(S(=O)(=O)CCNC(=O)CCOCCOCCOCCOCCNc3cccc4c3C(=O)N(C3CCC(=O)NC3=O)C4=O)CC2)ncc1Br (stereo not drawn) [Compound 1, N-(2-((4-((5-bromo-4-((2-carbamoyl-3-fluorophenyl)amino)pyrimidin-2-yl)amino)piperidin-1-yl)sulfonyl)ethyl)-1-((2-(2,6-dioxopiperidin-3-yl)-1,3-dioxoisoindolin-4-yl)amino)-3,6,9,12-tetraoxapentadecan-15-amide] | 6.4 | 8.1
NC(=O)c1c(F)cccc1Nc1nc(NC2CCN(S(=O)(=O)CCNC(=O)CCOCCNc3cccc4c3C(=O)N(C3CCC(=O)NC3=O)C4=O)CC2)ncc1Br (stereo not drawn) [Compound 2, 2-((5-bromo-2-((1-((2-(3-(2-((2-(2,6-dioxopiperidin-3-yl)-1,3-dioxoisoindolin-4-yl)amino)ethoxy)propanamido)ethyl)sulfonyl)piperidin-4-yl)amino)pyrimidin-4-yl)amino)-6-fluorobenzamide] | 5.1 | 3.8
NC(=O)c1c(F)cccc1Nc1nc(NC2CCN(S(=O)(=O)CCNC(=O)CCOCCOCCOc3cccc4c3C(=O)N(C3CCC(=O)NC3=O)C4=O)CC2)ncc1Br (stereo not drawn) [Compound 3, 2-((5-bromo-2-((1-((2-(3-(2-(2-((2-(2,6-dioxopiperidin-3-yl)-1,3-dioxoisoindolin-4-yl)oxy)ethoxy)ethoxy)propanamido)ethyl)sulfonyl)piperidin-4-yl)amino)pyrimidin-4-yl)amino)-6-fluorobenzamide] | 4.9 | 4.8
NC(=O)c1c(F)cccc1Nc1nc(NC2CCN(S(=O)(=O)CCNC(=O)CCOCCOCCOCCOCCOCCOCCOCCOCCNc3cccc4c3C(=O)N(C3CCC(=O)NC3=O)C4=O)CC2)ncc1Br (stereo not drawn) [Compound 4, N-(2-((4-((5-bromo-4-((2-carbamoyl-3-fluorophenyl)amino)pyrimidin-2-yl)amino)piperidin-1-yl)sulfonyl)ethyl)-1-((2-(2,6-dioxopiperidin-3-yl)-1,3-dioxoisoindolin-4-yl)amino)-3,6,9,12,15,18,21,24-octaoxaheptacosan-27-amide] | 7.3 | 8.4
NC(=O)c1c(F)cccc1Nc1nc(NC2CCN(S(=O)(=O)CCNC(=O)CCCCCCCOc3cccc4c3C(=O)N(C3CCC(=O)NC3=O)C4=O)CC2)ncc1Br (stereo not drawn) [Compound 6, 2-((5-bromo-2-((1-((2-(8-((2-(2,6-dioxopiperidin-3-yl)-1,3-dioxoisoindolin-4-yl)oxy)octanamido)ethyl)sulfonyl)piperidin-4-yl)amino)pyrimidin-4-yl)amino)-6-fluorobenzamide] | 17.1 | 11.8
NC(=O)c1c(F)cccc1Nc1nc(NC2CCN(S(=O)(=O)CCNC(=O)CCCCCOc3cccc4c3C(=O)N(C3CCC(=O)NC3=O)C4=O)CC2)ncc1Br (stereo not drawn) [Compound 7, 2-((5-bromo-2-((1-((2-(6-((2-(2,6-dioxopiperidin-3-yl)-1,3-dioxoisoindolin-4-yl)oxy)hexanamido)ethyl)sulfonyl)piperidin-4-yl)amino)pyrimidin-4-yl)amino)-6-fluorobenzamide] | 20.5 | 13.7
NC(=O)c1c(F)cccc1Nc1nc(N[C@@H]2CCCN(S(=O)(=O)CCNC(=O)CCCCCCCCOc3cccc4c3C(=O)N(C3CCC(=O)NC3=O)C4=O)C2)ncc1Br (stereo partly drawn) [Compound 8, 2-((5-bromo-2-(((3R)-1-((2-(9-((2-(2,6-dioxopiperidin-3-yl)-1,3-dioxoisoindolin-4-yl)oxy)nonanamido)ethyl)sulfonyl)piperidin-3-yl)amino)pyrimidin-4-yl)amino)-6-fluorobenzamide] | 347 | 241
Cc1ncsc1-c1ccc([C@H](C)NC(=O)[C@@H]2C[C@@H](O)CN2C(=O)[C@@H](NC(=O)CCOCCOCCOCCC(=O)NCCS(=O)(=O)N2CCC(Nc3ncc(Br)c(Nc4cccc(F)c4C(N)=O)n3)CC2)C(C)(C)C)cc1 [Compound 9, (2S,4R)-1-((S)-19-((4-((5-bromo-4-((2-carbamoyl-3-fluorophenyl)amino)pyrimidin-2-yl)amino)piperidin-1-yl)sulfonyl)-2-(tert-butyl)-4,16-dioxo-7,10,13-trioxa-3,17-diazanonadecanoyl)-4-hydroxy-N—((S)-1-(4-(4-methylthiazol-5-yl)phenyl)ethyl)pyrrolidine-2-carboxamide] | 7.5 | 4.1
Cc1ncsc1-c1ccc([C@H](C)NC(=O)[C@@H]2C[C@@H](O)CN2C(=O)[C@@H](NC(=O)CCCCC(=O)NCCS(=O)(=O)N2CCC(Nc3ncc(Br)c(Nc4cccc(F)c4C(N)=O)n3)CC2)C(C)(C)C)cc1 [Compound 10, N^1-(2-((4-((5-bromo-4-((2-carbamoyl-3-fluorophenyl)amino)pyrimidin-2-yl)amino)piperidin-1-yl)sulfonyl)ethyl)-N^6—((S)-1-((2S,4R)-4-hydroxy-2-(((S)-1-(4-(4-methylthiazol-5-yl)phenyl)ethyl)carbamoyl)pyrrolidin-1-yl)-3,3-dimethyl-1-oxobutan-2-yl)adipamide] | 9.1 | 4.3
Cc1ncsc1-c1ccc([C@H](C)NC(=O)[C@@H]2C[C@@H](O)CN2C(=O)[C@@H](NC(=O)CCOCCOCCC(=O)NCCS(=O)(=O)N2CCC(Nc3ncc(Br)c(Nc4cccc(F)c4C(N)=O)n3)CC2)C(C)(C)C)cc1 [Compound 11, (2S,4R)-1-((S)-16-((4-((5-bromo-4-((2-carbamoyl-3-fluorophenyl)amino)pyrimidin-2-yl)amino)piperidin-1-yl)sulfonyl)-2-(tert-butyl)-4,13-dioxo-7,10-dioxa-3,14-diazahexadecanoyl)-4-hydroxy-N—((S)-1-(4-(4-methylthiazol-5-yl)phenyl)ethyl)pyrrolidine-2-carboxamide] | – | 4.8
Cc1ncsc1-c1ccc([C@H](C)NC(=O)[C@@H]2C[C@@H](O)CN2C(=O)[C@@H](NC(=O)CCC(=O)NCCS(=O)(=O)N2CCC(Nc3ncc(Br)c(Nc4cccc(F)c4C(N)=O)n3)CC2)C(C)(C)C)cc1 [Compound 12, N^1-(2-((4-((5-bromo-4-((2-carbamoyl-3-fluorophenyl)amino)pyrimidin-2-yl)amino)piperidin-1-yl)sulfonyl)ethyl)-N^4—((S)-1-((2S,4R)-4-hydroxy-2-(((S)-1-(4-(4-methylthiazol-5-yl)phenyl)ethyl)carbamoyl)pyrrolidin-1-yl)-3,3-dimethyl-1-oxobutan-2-yl)succinamide] | – | 3.7
NC(=O)c1c(F)cccc1Nc1nc(NC2CCN(S(=O)(=O)CCNC(=O)CCC(=O)NCCCCCNc3cccc4c3C(=O)N(C3CCC(=O)NC3=O)C4=O)CC2)ncc1Br (stereo not drawn) [Compound 13, N^1-(2-((4-((5-bromo-4-((2-carbamoyl-3-fluorophenyl)amino)pyrimidin-2-yl)amino)piperidin-1-yl)sulfonyl)ethyl)-N^4-(5-((2-(2,6-dioxopiperidin-3-yl)-1,3-dioxoisoindolin-4-yl)amino)pentyl)succinamide] | – | 4.3
NC(=O)c1c(F)cccc1Nc1nc(NC2CCN(S(=O)(=O)CCNC(=O)CCCCCCCCC#Cc3cccc4c3CN(C3CCC(=O)NC3=O)C4=O)CC2)ncc1Br (stereo not drawn) [Compound 14, 2-((5-bromo-2-((1-((2-(11-(2-(2,6-dioxopiperidin-3-yl)-1-oxoisoindolin-4-yl)undec-10-ynamido)ethyl)sulfonyl)piperidin-4-yl)amino)pyrimidin-4-yl)amino)-6-fluorobenzamide] | – | 31.2
NC(=O)c1c(F)cccc1Nc1nc(NC2CCN(S(=O)(=O)CCNC(=O)CCCCCCCCCCc3cccc4c3CN(C3CCC(=O)NC3=O)C4=O)CC2)ncc1Br (stereo not drawn) [Compound 15, 2-((5-bromo-2-((1-((2-(11-(2-(2,6-dioxopiperidin-3-yl)-1-oxoisoindolin-4-yl)undecanamido)ethyl)sulfonyl)piperidin-4-yl)amino)pyrimidin-4-yl)amino)-6-fluorobenzamide] | – | 18.2
O=C(CCCCCCCCC#Cc1cccc2c1CN(C1CCC(=O)NC1=O)C2=O)NCCS(=O)(=O)N1CCC(Nc2ncc(Br)c(Nc3cccc4c3OCO4)n2)CC1 (stereo not drawn) [Compound 16, N-(2-((4-((4-(benzo[d][1,3]dioxol-4-ylamino)-5-bromopyrimidin-2-yl)amino)piperidin-1-yl)sulfonyl)ethyl)-11-(2-(2,6-dioxopiperidin-3-yl)-1-oxoisoindolin-4-yl)undec-10-ynamide] | – | 4370
O=C(CCCCCCCCOc1cccc2c1C(=O)N(C1CCC(=O)NC1=O)C2=O)NCCS(=O)(=O)N1CCC(Nc2ncc(Br)c(Nc3cccc4c3OCO4)n2)CC1 (stereo not drawn) [Compound 17, N-(2-((4-((4-(benzo[d][1,3]dioxol-4-ylamino)-5-bromopyrimidin-2-yl)amino)piperidin-1-yl)sulfonyl)ethyl)-9-((2-(2,6-dioxopiperidin-3-yl)-1,3-dioxoisoindolin-4-yl)oxy)nonanamide] | 253 | 924
O=C(CCOCCOCCOCCOCCNc1cccc2c1C(=O)N(C1CCC(=O)NC1=O)C2=O)NCCS(=O)(=O)N1CCC(Nc2ncc(Br)c(N3CCCc4ccccc43)n2)CC1 (stereo not drawn) [Compound 18, N-(2-((4-((5-bromo-4-(3,4-dihydroquinolin-1(2H)-yl)pyrimidin-2-yl)amino)piperidin-1-yl)sulfonyl)ethyl)-1-((2-(2,6-dioxopiperidin-3-yl)-1,3-dioxoisoindolin-4-yl)amino)-3,6,9,12-tetraoxapentadecan-15-amide] | 23.7 | 27.4
NC(=O)c1c(F)cccc1Nc1nc(NC2CCN(S(=O)(=O)CCNC(=O)CCOCCOCCOCCOCCNc3cccc4c3C(=O)N(C3CCC(=O)NC3=O)C4=O)CC23CC3)ncc1Br (stereo not drawn) [Compound 19, N-(2-((8-((5-bromo-4-((2-carbamoyl-3-fluorophenyl)amino)pyrimidin-2-yl)amino)-5-azaspiro[2.5]octan-5-yl)sulfonyl)ethyl)-1-((2-(2,6-dioxopiperidin-3-yl)-1,3-dioxoisoindolin-4-yl)amino)-3,6,9,12-tetraoxapentadecan-15-amide] | 116 | 71.3
